Assay results reported in paper PMC12610274, “Identification of Marrubiin as a Cathepsin C Inhibitor for Treating Rheumatoid Arthritis” (Molecules, 2025).

Key:
Cat G [1] = assay: NSPs activity in U937 cells after 5 days of treatment, Cat G; format: cell-based, human; settings: U937, 10 μM
Procedure: (§1) U937 cells in the logarithmic growth phase were collected and equally divided into six portions. Four of these portions were treated with DMSO solutions of the test compound at varying concentrations to achieve final concentrations of 1.25, 2.5, 5, and 10 μM, respectively. An equal volume of DMSO was added to one portion as a blank control, while another portion treated with a DMSO solution of AZD7986 served as a positive control. The cells were cultured under standard U937 conditions for 5 consecutive days, with daily medium changes and fresh compound treatments administered using the same protocol. Following 5 days of treatment, cells were harvested, washed twice thoroughly with phosphate-buffered saline, and lysed in phosphate-buffered saline containing 1% Triton X-100. The lysates were centrifuged to collect the supernatant, and protein concentrations were determined as previously described to ensure equal total protein loading across all samples. The prepared samples were stored at −20 °C until further analysis. Different assay buffers were prepared for diluting samples and measuring the activities of specific NSPs: a buffer containing 50 mM Tris and 750 mM NaCl (pH 7.4) was used for NE and PR3; a buffer containing 50 mM Tris, 750 mM NaCl, 5 mM EDTA (pH 7.4) was used for Cat G; and a buffer containing 25 mM MES, 50 mM NaCl, 5 mM DTT (pH 6.0) was used for CTSC. […]

PR3 [2] = assay: PR3 activity in blood and bone marrow of mice; format: in vivo, C57BL/6 mice; settings: 30 mg/kg daily gavage, 7 days
Procedure: (§2) A total of 25 C57BL/6 mice (6–8 weeks old, weighing approximately 20 g, with equal numbers of males and females) were randomly divided into five groups. Mice in the compound-treated groups were orally administered the compound once daily at doses of 0.3, 3, and 30 mg/kg for 7 consecutive days. […] Mice in the normal group were given an equal volume of normal saline at the same time points. The body weight, death rate, and behavior were observed and recorded daily for one week. After 7 days, bone marrow and blood samples were collected from the mice and lysed using 8% Triton X-100 buffer. The lysates were stored at −20 °C until testing. The activity assays for CTSC and NSPs were performed as described above. The mice were anesthetized and the tissues were taken for H&E staining.

PR3 [3] = assay: NSPs activity in U937 cells after 5 days of treatment, PR3; format: cell-based, human; settings: U937, 10 μM
Procedure: as §1

NE [4] = assay: AIA model, serum NE activity; format: in vivo, Sprague-Dawley rats; settings: rat AIA, 30 mg/kg gavage, 15 days
Procedure: (§3) Thirty 4-week-old male Sprague-Dawley rats (weighing 120–130 g) were randomly divided into 6 groups (5 rats per group) after 1 week of adaptive feeding, namely the normal group, model group, low-dose experimental group (15 mg/kg), medium-dose experimental group (30 mg/kg), high-dose experimental group (60 mg/kg), and positive control group (30 mg/kg). Starting from Day 0 of the experiment, rats in the administration groups and model group were injected intradermally with 0.1 mL of CFA into the left hind paw to induce AIA, while rats in the normal group were injected intradermally with an equal volume (0.1 mL) of normal saline as a control. After 13 consecutive days of feeding, rats treated with CFA successfully developed typical AIA symptoms. […] During the experiment, the body weight, mental state, activity ability, hair color changes, and paw appearance changes of the rats were observed and recorded daily. In addition, on Day 0 of the experiment (baseline period), the basic paw volume of all rats was accurately measured using a plethysmometer, which served as a reference standard for subsequent evaluation of inflammation severity. From Day 13 to Day 28 of the experiment, the paw volume of the rats was measured repeatedly every 3 days. The degree of paw swelling was quantified by calculating the change in paw volume relative to the baseline. […] The cytokine levels in serum were measured. […]

CTSC [5] = biological target: T1, CTSC (Homo sapiens, UniProt P53634); assay: CTSC activity in U937 cells after 5 days of treatment; format: cell-based; design: endogenous in cells; host or cells: U937; settings: U937, 5 days, marrubiin and AZD7986 at the same concentration
Procedure: as §1
Target sequence in this assay (P53634 25-463): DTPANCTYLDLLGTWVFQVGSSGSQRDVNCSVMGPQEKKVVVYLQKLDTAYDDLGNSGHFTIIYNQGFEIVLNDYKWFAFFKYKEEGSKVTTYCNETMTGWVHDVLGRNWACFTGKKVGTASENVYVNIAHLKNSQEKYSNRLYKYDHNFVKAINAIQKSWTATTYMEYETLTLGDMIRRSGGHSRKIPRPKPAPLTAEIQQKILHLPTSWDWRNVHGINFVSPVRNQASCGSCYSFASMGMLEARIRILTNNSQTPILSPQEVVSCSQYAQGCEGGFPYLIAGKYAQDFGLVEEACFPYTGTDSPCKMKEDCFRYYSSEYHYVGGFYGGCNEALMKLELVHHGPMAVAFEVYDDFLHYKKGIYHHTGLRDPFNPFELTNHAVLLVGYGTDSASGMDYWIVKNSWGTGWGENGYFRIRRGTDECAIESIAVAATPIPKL

Cat G [6] = assay: AIA model, serum Cat G activity; format: in vivo, Sprague-Dawley rats; settings: rat AIA, 30 mg/kg gavage, 15 days
Procedure: as §3

NE [7] = assay: NE activity in blood and bone marrow of mice; format: in vivo, C57BL/6 mice; settings: 30 mg/kg daily gavage, 7 days
Procedure: as §2

[8] = Cytotoxicity assay, RAW264.7 cell line; format: cell-based; settings: mouse, RAW264.7 cells
Procedure: (§4) RAW264.7 cells and U937 cells in the logarithmic growth phase were counted and diluted, and the concentrations of the single-cell suspensions of the two types of cells were adjusted to 5 × 10^4 cells/mL and 3 × 10^4 cells/mL, respectively. After thorough mixing, the cells were seeded into a 96-well plate, with 100 μL of cell suspension added to each well. Prepare the working solution of test compounds using the corresponding medium as the solvent, with the concentration of working solution being 2 times the final test concentration (2.5 μM, 5 μM, 10 μM, 20 μM, and 40 μM). Twenty-four hours after cell seeding, the compound working solutions were added to the compound test wells, and the same volume of medium was added to the negative control wells, followed by continuous incubation for another 24 h. Only the wells with the same volume but without cells served as the blank control group. The CellTiter-Lumi™ luminescent cell viability assay kit (Beyotime Biotechnology, Shanghai, China, C0065XL) was used to detect cell viability according to the standard operating procedures. Each group of tests was independently repeated at least 3 times, and IC50 values were calculated using SPSS 10.0.

NE [9] = assay: NSPs activity in U937 cells after 5 days of treatment, NE; format: cell-based, human; settings: U937, 10 μM
Procedure: as §1

CTSC [10] = biological target: T2, CTSC (Rattus norvegicus, UniProt P80067); assay: AIA model, serum CTSC activity; format: in vivo, Sprague-Dawley rats; settings: 30 mg/kg gavage, 15 days
T2 construct: from tissue; host or cells: serum of Sprague-Dawley rats (AIA model)
Procedure: as §3

[11] = Cytotoxicity assay, U937 cell line; format: cell-based; settings: human, U937 cells
Procedure: as §4

Cat G [12] = assay: Cat G activity in blood and bone marrow of mice; format: in vivo, C57BL/6 mice; settings: 30 mg/kg daily gavage, 7 days
Procedure: as §2

PR3 [13] = assay: AIA model, serum PR3 activity; format: in vivo, Sprague-Dawley rats; settings: rat AIA, 30 mg/kg gavage, 15 days
Procedure: as §3

CTSC [14] = biological target: T3, CTSC (Mus musculus, UniProt P97821); assay: CTSC activity in blood and bone marrow of mice; format: in vivo, C57BL/6 mice; settings: 30 mg/kg daily gavage, 7 days
T3 construct: from tissue; host or cells: mouse blood and bone marrow lysates
Procedure: as §2

AIA model = assay: Adjuvant-induced arthritis (AIA) model, disease severity; format: in vivo, Sprague-Dawley rats; settings: rat AIA
Procedure: Thirty 4-week-old male Sprague-Dawley rats (weighing 120–130 g) were randomly divided into 6 groups (5 rats per group) after 1 week of adaptive feeding, namely the normal group, model group, low-dose experimental group (15 mg/kg), medium-dose experimental group (30 mg/kg), high-dose experimental group (60 mg/kg), and positive control group (30 mg/kg). Starting from Day 0 of the experiment, rats in the administration groups and model group were injected intradermally with 0.1 mL of CFA into the left hind paw to induce AIA, while rats in the normal group were injected intradermally with an equal volume (0.1 mL) of normal saline as a control. After 13 consecutive days of feeding, rats treated with CFA successfully developed typical AIA symptoms. […] During the experiment, the body weight, mental state, activity ability, hair color changes, and paw appearance changes of the rats were observed and recorded daily. In addition, on Day 0 of the experiment (baseline period), the basic paw volume of all rats was accurately measured using a plethysmometer, which served as a reference standard for subsequent evaluation of inflammation severity. From Day 13 to Day 28 of the experiment, the paw volume of the rats was measured repeatedly every 3 days. The degree of paw swelling was quantified by calculating the change in paw volume relative to the baseline. Meanwhile, the arthritis index score was calculated based on the range of paw redness and swelling, the severity of swelling, and the degree of limb movement limitation, so as to comprehensively evaluate the inflammatory state. On Day 28 of the experiment (the end of the administration cycle), blood samples were collected via abdominal aortic puncture. The blood samples were centrifuged at 3000 rpm for 20 min, and the upper serum was collected and stored at −20 °C for subsequent detection. The rats were then sacrificed, and their ankle joint tissues were harvested for subsequent pathological section observation and analysis. The cytokine levels in serum were measured. The activity detection of CTSC and NSPs was carried out according to the above methods.

CTSC [15] = biological target: T1, CTSC; assay: Human recombinant CTSC isolated enzyme assay; format: biochemical; design: purchased R&D Systems; settings: for IC50: human recombinant CTSC, cell-free, 12-point dose-response, read-out: CTSC Enz (IC50: nM)
Procedure: Both recombinant CTSL and CTSC for in vitro cell-free-based enzymatic activity assay can be purchased from R&D Systems (Minneapolis, MN, USA), a biotechnology company. According to the standardized procedures and material ratios provided by R&D Systems, prepare the activation solution (25 mM MES + 5 mM DTT, pH 6.0) and the assay solution (25 mM MES + 50 mM NaCl + 5 mM DTT, pH 6.0) in advance for later use. Dilute the detection substrate H-Gly-Arg-AMC to a 200 µM solution with the assay solution for standby. Prepare the working solution of compounds to be tested using the assay solution, with the concentration of working solution being 10 times the final test concentration. Dilute CTSC and CTSL, respectively, with cold activation solution. Thoroughly mix the two activation solutions containing the proteins to achieve final concentrations of 300 nM for CTSL and 440 nM for CTSC. After co-incubation for 1 h, the activated CTSC treated with CTSL can be used for the enzymatic activity inhibition efficacy test of compounds. Dilute the activated CTSC to 4.4 nM with cold assay buffer. Incubate 4 μL of the activated CTSC with 1 μL of the compound working solution (test group) or 1 μL of blank assay solution (control group) at room temperature for 3 h. Then, add 5 μL of the detection substrate to achieve a final concentration of 100 μM. Mix 5 µL each of the assay solution and the substrate solution as the blank group. After 1 h, the absorbance of detection substrate was measured using a multifunctional microplate reader at excitation/emission wavelengths of 380 nm/460 nm. The inhibitory efficacy of molecules on enzyme activity was calculated based on the absorbance difference between test group and control group. […] Each group of tests mentioned above was independently repeated at least 3 times, and IC50 values were calculated using SPSS 10.0.
Target sequence in this assay (P53634 25-134 limits assumed): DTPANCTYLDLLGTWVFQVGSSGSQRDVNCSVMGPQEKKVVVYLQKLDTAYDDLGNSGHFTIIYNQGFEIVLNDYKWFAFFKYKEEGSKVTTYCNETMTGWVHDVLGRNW
Target sequence in this assay (P53634 231-394 limits assumed): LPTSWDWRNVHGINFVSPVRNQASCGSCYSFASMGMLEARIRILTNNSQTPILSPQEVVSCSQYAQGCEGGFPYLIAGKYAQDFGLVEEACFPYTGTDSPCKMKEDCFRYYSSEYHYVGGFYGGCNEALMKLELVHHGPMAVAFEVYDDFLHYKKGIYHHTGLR
Target sequence in this assay (P53634 395-463 limits assumed): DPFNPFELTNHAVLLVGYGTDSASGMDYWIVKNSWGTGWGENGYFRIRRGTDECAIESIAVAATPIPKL

intracellular CTSC = biological target: T4, intracellular CTSC (Homo sapiens, UniProt P53634); assay: CTSC cell-based assay using the U937 cell line; settings: read-out: Cell-Based Enz (IC50: nM)
T4 construct: endogenous in cells; host or cells: U937
Procedure: Cell-based CTSC enzymatic activity assays were performed in 96-well clear-bottom black microplates. […] The detection substrate, H-Gly-Arg-AFC, was diluted to 100 µM in serum-free medium and stored for later use. U937 cells in the logarithmic growth phase were harvested, washed with PBS, and counted. A single-cell suspension was prepared at a density of 1.0 × 10^6 cells/mL using serum-free medium. 30 µL of cell suspension was seeded into each well of the 96-well plate. To the test wells, 10 µL of the compound working solution was added, while 10 µL of serum-free medium was added to the control wells. The plate was pre-incubated in a cell culture incubator at 37 °C for 3 h. Subsequently, 10 µL of H-Gly-Arg-AFC was added to initiate the enzymatic reaction, and the plate was further incubated at 37 °C for 1 h. Fluorescence measurements were performed using a multimode microplate reader at excitation/emission wavelengths of 400/505 nm. Each group of tests was independently repeated at least 3 times, and IC50 values were calculated using SPSS 10.0.

T4 sequence (P53634 25-463): as the sequence (P53634 25-463) above
T3 sequence (P97821 25-462): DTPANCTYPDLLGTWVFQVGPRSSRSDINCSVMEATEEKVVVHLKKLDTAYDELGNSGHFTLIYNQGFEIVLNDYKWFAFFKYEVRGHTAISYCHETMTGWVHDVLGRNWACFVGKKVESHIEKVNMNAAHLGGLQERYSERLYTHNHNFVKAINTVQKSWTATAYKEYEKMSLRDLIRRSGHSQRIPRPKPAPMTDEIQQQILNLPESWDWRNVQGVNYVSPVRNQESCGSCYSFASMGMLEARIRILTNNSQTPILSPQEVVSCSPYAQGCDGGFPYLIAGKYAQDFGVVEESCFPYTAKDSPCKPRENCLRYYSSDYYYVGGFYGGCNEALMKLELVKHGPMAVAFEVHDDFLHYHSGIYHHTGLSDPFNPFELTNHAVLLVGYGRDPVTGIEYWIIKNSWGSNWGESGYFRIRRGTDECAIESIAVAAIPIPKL
T2 sequence (P80067 25-462): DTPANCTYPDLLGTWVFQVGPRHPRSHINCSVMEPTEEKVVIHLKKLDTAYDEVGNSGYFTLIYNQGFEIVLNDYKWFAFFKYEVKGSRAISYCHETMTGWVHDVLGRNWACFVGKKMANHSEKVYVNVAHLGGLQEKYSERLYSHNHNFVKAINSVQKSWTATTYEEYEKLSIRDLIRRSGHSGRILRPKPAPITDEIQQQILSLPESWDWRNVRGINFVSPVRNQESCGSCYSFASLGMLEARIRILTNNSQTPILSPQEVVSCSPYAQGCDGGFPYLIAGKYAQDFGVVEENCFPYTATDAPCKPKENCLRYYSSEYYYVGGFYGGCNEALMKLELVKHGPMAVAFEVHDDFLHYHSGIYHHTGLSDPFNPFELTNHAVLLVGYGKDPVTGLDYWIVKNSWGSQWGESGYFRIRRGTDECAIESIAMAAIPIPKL

Cn1c(=O)oc2ccc(-c3ccc(C[C@@H](C#N)NC(=O)[C@@H]4CNCCCO4)cc3)cc21 [AZD7986, reference compound]
Cat G activity, % of DMSO group (Cat G [1]): 12.7% | remaining activity rate of PR3 (PR3 [2]; blood): ~10.3% | remaining activity rate of PR3 (PR3 [2]; bone marrow): ~15.8% | PR3 activity, % of DMSO group (PR3 [3]): 8.1% | serum NE activity, % of control group (NE [4]): ~30% | residual CTSC activity (CTSC [5]): less than 8% | serum Cat G activity, % of control group (Cat G [6]): approximately 58% | remaining activity rate of NE (NE [7]; blood): ~8.1% | remaining activity rate of NE (NE [7]; bone marrow): ~11.7% | IC50 at 24 h [8]: > 10 µM | NE activity, % of DMSO group (NE [9]): 5.1% | serum CTSC activity, % of control group (CTSC [10]): approximately 35% | IC50 at 24 h [11]: > 10 µM | remaining activity rate of Cat G (Cat G [12]; blood): ~35.2% | remaining activity rate of Cat G (Cat G [12]; bone marrow): ~30.5% | serum PR3 activity, % of control group (PR3 [13]): ~40% | remaining activity rate of CTSC (CTSC [14]; blood): ~18.3% | remaining activity rate of CTSC (CTSC [14]; bone marrow): approximately 10.6% | histopathology of ankle joints (H&E, Safranin O/Fast Green) (AIA model; 30 mg/kg): reduced the histopathological statement | clinical score vs AIA model group (AIA model; 30 mg/kg gavage, from day 16 onwards): significantly lower than those of AIA model group | volume and thickness of inflamed paws (AIA model; 30 mg/kg, days 16 to 28): continuous reduction in volume and a gradual decrease in thickness | body weight recovery (AIA model; 30 mg/kg, from day 16 onwards): most significant weight recovery effects

CC(=O)OCC1=CO[C@@H](OC(=O)CC(C)C)[C@H]2C1=C[C@H](OC(=O)CC(C)(C)OC(C)=O)[C@]21CO1 [Acevaltrate, acevaltrate]
IC50 (CTSC [15]): 1053 ± 2.2 nM | IC50 (intracellular CTSC): 702.1 ± 3.2 nM | IC50 at 24 h [8]: > 10 µM | IC50 at 24 h [11]: > 10 µM

N[C@@H]1CON=C1O [D-cycloserine]
enzymatic inhibitory activity against CTSC (CTSC [15]; result in words): no enzymatic inhibitory activity at all

N[C@H]1CONC1=O [L-Cycloserine, L-cycloserine]
IC50 (CTSC [15]): 1101 ± 2 nM | IC50 (intracellular CTSC): > 5000 nM | IC50 at 24 h [8]: > 10 µM | IC50 at 24 h [11]: > 10 µM

CC1(C)CC[C@]2(C(=O)O)[C@H](O)C[C@]3(C)C(=CC[C@@H]4[C@@]5(C)CC[C@H](O)[C@@](C)(C=O)[C@@H]5CC[C@]43C)[C@@H]2C1 [Quillaic acid, quillaic acid]
IC50 (CTSC [15]): 125 ± 2.9 nM | IC50 (intracellular CTSC): > 5000 nM | IC50 at 24 h [8]: > 10 µM | IC50 at 24 h [11]: > 10 µM

CN1C2CC(O)CC1C1OC12 (stereo not drawn) [Scopine, scopine]
IC50 (CTSC [15]): 135 ± 4.7 nM | IC50 (intracellular CTSC): 337 ± 1.8 nM | IC50 at 24 h [8]: > 10 µM | IC50 at 24 h [11]: > 10 µM
